In patent US12091425B2 (AMGEN INC., priority 2016, dated 2024) one finds IC50 data, which are given here for 20 compounds.

In test [1] the test system is OPM-2 human multiple myeloma cell line. Description: Cell Viability Assay (OPM-2 10 FBS). It counts as cell-based. The settings on record: OPM-2 cells, CellTiter-Glo. In short, it runs like this: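 IC50 from 4-parameter logistic fit of CellTiter-Glo luminescence. 3000 cells/well, 10% FBS medium, serial compound dilutions, 16 h, 37 °C/5% CO2; read 25 min post-reagent.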
In general terms: ATP-based viability assays read luminescence as a measure of living cells.

Test [2] has as its target T1, Mcl-1/Bim interaction, recombinant human Mcl-1 (171-327) (Homo sapiens, UniProt Q07820).
T1 construct: made in house
Put plainly: Cell free Mcl-1: Bim Affinity Assay (Mcl-1 HTRF). The test is classed as binding. The gist of the method:
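TR-FRET competition assay with biotinylated human Bim peptide (residues 51-76); reaction plates incubated overnight before reading. IC50 values came from duplicate data fitted to a four-parameter sigmoidal competition curve.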
A general note: In TR-FRET formats the signal depends on donor and acceptor labels being close together.

Where [3] appears, read: Homo sapiens, OPM-2, 16 h, 16 h.
Where [4] appears, read: TR-FRET, 0.1 nM Mcl-1 (171-327), 0.05 nM biotin-Bim (51-76).
Where [5] appears, read: Homo sapiens, OPM-2, 16 h, 16 h incubation.
[6] abbreviates: cell free Mcl-1:Bim TR-FRET, recombinant human Mcl-1 (171-327).

For orientation: IC50 means the concentration that gives 50% inhibition.

Each structure is given as a SMILES string.

T1 sequence (Q07820 171-327): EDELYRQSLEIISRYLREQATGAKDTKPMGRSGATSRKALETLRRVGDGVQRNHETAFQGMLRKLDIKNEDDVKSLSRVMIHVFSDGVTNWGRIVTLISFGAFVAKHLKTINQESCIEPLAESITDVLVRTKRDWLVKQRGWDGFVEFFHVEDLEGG

As to `CO[C@H]1/C=C/C[C@H](CO)[C@@H](C)S(=O)(=O)NC(=O)c2ccc3c(c2)N(C[C@@H]2CC[C@H]21)C[C@@]1(CCCc2cc(Cl)ccc21)CO3` [Example 1, (1S,3′R,6′R,7′S,8′E,11′R,12′R)-6-chloro-11′-(hydroxymethyl)-7′-methoxy-12′-methyl-3,4-dihydro-2H,15′H-spiro[naphthalene-1,22′-[20]oxa[13]thia[1,14]diazatetracyclo[14.7.2.0^3,6.0^19,24]pentacosa [8,16,18,24]tetraen]-15′-one 13′,13′-dioxide], the IC50 in test [1] (setting [3]) came to 254 nM; in test [2] (setting [4]) it was 0.34 nM.
As for `CO[C@H]1/C=C/CC[C@@H](C(=O)N(C)C)S(=O)(=O)NC(=O)c2ccc3c(c2)N(C[C@@H]2CC[C@H]21)C[C@@]1(CCCc2cc(Cl)ccc21)CO3` (single isomer, unassigned) [Example 452], the IC50 in test [1] (16 h) was found to be 775 nM; in test [2] (setting [4]), 0.277 nM.
For `C[C@H]1[C@H]2/C=C/[C@H](O)[C@@H]3CC[C@H]3CN3C[C@@]4(CCCc5cc(Cl)ccc54)COc4ccc(cc43)C(=O)NS(=O)(=O)[C@H]1CCC2` (single isomer, unassigned) [Example 111], the IC50 is 17800 nM in test [1] (setting [3]) and 30.8 nM in test [2] (setting [4]).
Consider `C[C@@H]1[C@@H](C)C[C@H](CC#N)/C=C/[C@@H]2CC[C@H]2CN2C[C@@]3(CCCc4cc(Cl)ccc43)COc3ccc(cc32)C(=O)NS1(=O)=O` [Example 1075, ((1S,3′R,6′S,7′E,9′R,11′S,12′R)-6-chloro-11′,12′-dimethyl-13′,13′-dioxido-15′-oxo-3,4-dihydro-2H-spiro[naphthalene-1,22′-[20]oxa[13]thia[1,14]diazatetracyclo[14.7.2.0^3,6.0^19,24]pentacosa [7,16,18,24]tetraen]-9′-yl)acetonitrile], for which the IC50 is 2150 nM in test [1] (setting [5]) and 6.15 nM in test [2] (setting [4]).
For the compound `COC(=O)CC1C(C)CC=CC(OC)C2CCC2CN2CC3(CCCc4cc(Cl)ccc43)COc3ccc(cc32)C(=O)NS1(=O)=O` (single isomer, unassigned) [Example 576], the IC50 in test [1] (16 h) came out at 220 nM; in test [2] (setting [6]), 0.382 nM.
In the case of `CO[C@H]1/C=C/[C@@H](C)C[C@@H](C)S(=O)(=O)NC(=O)c2ccc3c(c2)N(C[C@@H]2CC[C@H]21)C[C@@]1(CCCc2cc(Cl)ccc21)CO3` [Example 1019, (1S,3′R,6′R,7′S,8′E,10′S,12′R)-6-chloro-7′-methoxy-10′,12′-dimethyl-3,4-dihydro-2H,15′H-spiro[naphthalene-1,22′-[20]oxa[13]thia[1,14]diazatetracyclo[14.7.2.0^3,6.0^19,24]pentacosa [8,16,18,24]tetraen]-15′-one 13′,13′-dioxide], the IC50 in test [1] (setting [5]) turned out to be 475 nM; in test [2] (setting [4]), 0.497 nM.
As for `CCO[C@@H]1/C=C/CCCS(=O)(=O)NC(=O)c2ccc3c(c2)N(C[C@@H]2CC[C@H]21)C[C@@]1(CCCc2cc(Cl)ccc21)CO3` [Example 209, (1S,3′R,6′R,7′R,8′E)-6-chloro-7′-ethoxy-3,4-dihydro-2H,15′H-spiro[naphthalene-1,22′-[20]oxa[13]thia[1,14]diazatetracyclo[14.7.2.0^3,6.0^19,24]pentacosa [8,16,18,24]tetraen]-15′-one 13′,13′-dioxide], the half-inhibitory concentration (IC50) in test [1] (setting [3]) came to 5370 nM; in test [2] (setting [4]), 5.25 nM.
Consider `C[C@@H]1[C@@H](C)C/C=C/[C@H](OCC(=O)NC2COC2)[C@@H]2CC[C@H]2CN2C[C@@]3(CCCc4cc(Cl)ccc43)COc3ccc(cc32)C(=O)NS1(=O)=O` [Example 303, 2-(((1S,3′R,6′R,7′S,8′E,11′S,12′R)-6-chloro-11′,12′-dimethyl-13′,13′-dioxido-15′-oxo-3,4-dihydro-2H-spiro[naphthalene-1,22′-[20]oxa[13]thia[1,14]diazatetracyclo[14.7.2.0^3,6.0^19,24]pentacosa [8,16,18,24]tetraen]-7′-yl)oxy)-N-3-oxetanylacetamide], for which the IC50 in test [1] (setting [3]) was 567 nM; in test [2] (setting [4]), 0.2 nM.
As to `CCOC(=O)CO[C@@H]1/C=C/CCCS(=O)(=O)NC(=O)c2ccc3c(c2)N(C[C@@H]2CC[C@H]21)C[C@@]1(CCCc2cc(Cl)ccc21)CO3` [Example 217, ethyl(((1S,3′R,6′R,7′R,8′E)-6-chloro-13′,13′-dioxido-15′-oxo-3,4-dihydro-2H-spiro[naphthalene-1,22′-[20]oxa[13]thia[1,14]diazatetracyclo[14.7.2.0^3,6.0^19,24]pentacosa [8,16,18,24]tetraen]-7′-yl)oxy)acetate], the IC50 in test [1] (setting [3]) worked out at 2660 nM; in test [2] (setting [4]), 3.81 nM.
For the compound `COC(=O)CO[C@H]1/C=C/CC[C@@H](C)S(=O)(=O)NC(=O)c2ccc3c(c2)N(C[C@@H]2CC[C@H]21)C[C@@]1(CCCc2cc(Cl)ccc21)CO3` [Example 408, methyl(((1S,3′R,6′R,7′S,8′E,12′R)-6-chloro-12′-methyl-13′,13′-dioxido-15′-oxo-3,4-dihydro-2H-spiro[naphthalene-1,22′-[20]oxa[13]thia[1,14]diazatetracyclo[14.7.2.0^3,6.0^19,24]pentacosa [8,16,18,24]tetraen]-7′-yl)oxy)acetate], the IC50 amounted to 98.8 nM in test [1] (setting [3]) and 0.312 nM in test [2] (setting [4]).
In the case of `C[C@H]1C/C=C\[C@H](O)[C@@H]2CC[C@H]2CN2C[C@@]3(CCCc4cc(Cl)ccc43)COc3ccc(cc32)C(=O)NS(=O)(=O)N1C[C@@H]1CCCO1` (single isomer, unassigned) [Example 50], the IC50 in test [1] (setting [3]) was determined as 2210 nM; in test [2] (setting [4]), 3.62 nM.
On to `CC[C@@H]1CC/C=C/[C@H](OC(C)=O)[C@@H]2CC[C@H]2CN2C[C@@]3(CCCc4cc(Cl)ccc43)COc3ccc(cc32)C(=O)NS1(=O)=O` [Example 426, (1S,3′R,6′R,7′S,8′E,12′R)-6-chloro-12′-ethyl-13′,13′-dioxido-15′-oxo-3,4-dihydro-2H-spiro[naphthalene-1,22′-[20]oxa[13]thia[1,14]diazatetracyclo[14.7.2.0^3,6.0^19,24]pentacosa [8,16,18,24]tetraen]-7′-yl acetate], for which the IC50 was 941 nM in test [1] (setting [3]) and 2.1 nM in test [2] (setting [4]).
Consider `COCCO[C@H]1/C=C/C(C)C[C@@H](COC)S(=O)(=O)NC(=O)c2ccc3c(c2)N(C[C@@H]2CC[C@H]21)C[C@@]1(CCCc2cc(Cl)ccc21)CO3` (single isomer, unassigned) [Example 1039], for which the IC50 in test [1] (16 h incubation) was 198 nM; in test [2] (setting [4]), 0.389 nM.
For the compound `CN(C)C(=O)CCO[C@@H]1/C=C/CCCS(=O)(=O)NC(=O)c2ccc3c(c2)N(C[C@@H]2CC[C@H]21)C[C@@]1(CCCc2cc(Cl)ccc21)CO3` [Example 211, 3-(((1S,3′R,6′R,7′R,8′E)-6-chloro-13′,13′-dioxido-15′-oxo-3,4-dihydro-2H-spiro[naphthalene-1,22′-[20]oxa[13]thia[1,14]diazatetracyclo[14.7.2.0^3,6.0^19,24]pentacosa [8,16,18,24]tetraen]-7′-yl)oxy)-N,N-dimethylpropanamide], the IC50 in test [1] (setting [3]) was 2370 nM; in test [2] (setting [4]), 1.11 nM.
For `C[C@@H]1C[C@@H](C)/C=C/[C@H](O)[C@@H]2CC[C@H]2CN2C[C@@]3(CCCc4cc(Cl)ccc43)COc3ccc(cc32)C(=O)NS1(=O)=O` [Example 1014, (1S,3′R,6′R,7′S,8′E,10′R,12′R)-6-chloro-7′-hydroxy-10′,12′-dimethyl-3,4-dihydro-2H,15′H-spiro[naphthalene-1,22′-[20]oxa[13]thia[1,14]diazatetracyclo[14.7.2.0^3,6.0^19,24]pentacosa [8,16,18,24]tetraen]-15′-one 13′,13′-dioxide], the IC50 in test [1] (setting [5]) is 329 nM; in test [2] (setting [4]) it was 0.267 nM.
`CCN1CC/C=C/[C@H](OCC(=O)OC)[C@@H]2CC[C@H]2CN2C[C@@]3(CCCc4cc(Cl)ccc43)COc3ccc(cc32)C(=O)NS1(=O)=O` [Example 43, methyl(((1S,3′R,6′R,7′S,8′E)-6-chloro-12′-ethyl-13′,13′-dioxido-15′-oxo-3,4-dihydro-2H-spiro[naphthalene-1,22′-[20]oxa[13]thia[1,12,14]triazatetracyclo[14.7.2.0^3,6.0^19,24]pentacosa[8,16,18,24]tetraen]-7′-yl)oxy)acetate]: the IC50 in test [1] (setting [3]) is 536 nM; in test [2] (setting [4]), 0.995 nM.
On to `CO[C@H](C)C[C@@H]1CC/C=C/[C@H](OC)[C@@H]2CC[C@H]2CN2C[C@@]3(CCCc4cc(Cl)ccc43)COc3ccc(cc32)C(=O)NS1(=O)=O` (single isomer, unassigned) [Example 549], for which the IC50 is 285 nM in test [1] (16 h) and 0.554 nM in test [2] (setting [6]).
In the case of `CCOC[C@H]1[C@@H](C)C/C=C/[C@H](O)[C@@H]2CC[C@H]2CN2C[C@@]3(CCCc4cc(Cl)ccc43)COc3ccc(cc32)C(=O)NS1(=O)=O` (single isomer, unassigned) [Example 467], the IC50 in test [1] (16 h) came out at 1510 nM; in test [2] (setting [4]), 1.45 nM.
Turning to `COCCO[C@H]1/C=C/[C@H](C)C[C@@H](C)S(=O)(=O)NC(=O)c2ccc3c(c2)N(C[C@@H]2CC[C@H]21)C[C@@]1(CCCc2cc(Cl)ccc21)CO3` [Example 1017, (1S,3′R,6′R,7′S,8′E,10′R,12′R)-6-chloro-7′-(2-methoxyethoxy)-10′,12′-dimethyl-3,4-dihydro-2H,15′H-spiro[naphthalene-1,22′-[20]oxa[13]thia[1,14]diazatetracyclo[14.7.2.0^3,6.0^19,24]pentacosa [8,16,18,24]tetraen]-15′-one 13′,13′-dioxide], the results for the IC50 in test [1] (setting [5]) and in test [2] (setting [4]) were 310 nM and 0.339 nM, respectively.
Turning to `O=C1NS(=O)(=O)[C@@H]2C[C@H](O)C[C@H]2C/C=C/[C@H](O)[C@@H]2CC[C@H]2CN2C[C@@]3(CCCc4cc(Cl)ccc43)COc3ccc1cc32` (single isomer, unassigned) [Example 335], the 50% inhibitory concentration (IC50) in test [1] (16 h) came to 2120 nM; in test [2] (setting [4]), 0.263 nM.
